From patent publication US20100062131A1, “FLAVAN-3-OL CONTAINING FOODSTUFFS” (CONOPCO, INC., D/B/A UNILEVER, priority 2008, published 2010)

Molecular target: T1, human bitter receptor TAS2R39 (Homo sapiens, UniProt P59534)
T1 construct: expressed in transfected cells; host or cells: HEK293 (tetracycline/doxycycline-inducible expression; blasticidin, geneticin and hygromycin selection)
T1 sequence (P59534 1-338): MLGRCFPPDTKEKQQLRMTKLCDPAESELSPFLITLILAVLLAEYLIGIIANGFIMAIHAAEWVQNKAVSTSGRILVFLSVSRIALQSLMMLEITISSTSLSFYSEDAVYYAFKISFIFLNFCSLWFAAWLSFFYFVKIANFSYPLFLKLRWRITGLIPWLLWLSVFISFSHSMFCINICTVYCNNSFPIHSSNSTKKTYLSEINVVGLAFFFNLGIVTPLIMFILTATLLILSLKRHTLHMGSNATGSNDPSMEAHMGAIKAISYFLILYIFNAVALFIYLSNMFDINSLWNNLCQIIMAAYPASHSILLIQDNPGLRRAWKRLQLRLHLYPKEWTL
Assay: Inhibition of ECG stimulation of TAS2R39, intracellular calcium (Fluo4-AM fluorescence) assay
Type: cell-based
Conditions: for % inhibition of TAS2R39: HEK293 cells expressing TAS2R39, test solution 0.5 mM ECG and 10 mM test compound in Tyrodes buffer, percentage reduction of ΔF vs ECG alone; for effectiveness as inhibitor of TAS2R39 compared with gallic acid: comparison of % inhibition in Table 1 with gallic acid
Excerpt: Activation of the bitter receptor TAS2R39 causes the release of calcium from the endoplasmic reticulum of those cells containing the receptor. Therefore, changes in calcium levels within cells expressing TAS2R39 serves as a proxy marker for the activity of the receptor. An assay was used to assess the stimulation of TAS2R39 by the flavan-3-ol epicatechin gallate (ECG) and to assess the inhibition of this stimulation of TAS2R39 through the use of various compounds as follows:
HEK293 cells expressing the human bitter receptor TAS2R39 and a G-protein that allows coupling to a calcium readout system were maintained in Dulbecco's Modified Eagle's Medium (DMEM) containing DMEM and 10% tetracycline-free fetal bovine serum (Cambrex) supplemented with blasticidin (5 μg/ml) geneticin (400 μg/ml) and hygromycin (100 μg/ml). Cells were grown and maintained at 37° C./5% CO2.
Cells were cultured in a 75 cm^2 flask, harvested by trypsinisation and resuspended in DMEM medium. 100 μl of cells per well were added to a poly-L-lysine coated μClear 96-well plate, and incubated overnight. Expression of the TAS2R39 gene was then induced by the addition of 100 μl DMEM medium containing 0.5 μg/ml doxycyclin. After another 24-30 hrs the medium was removed and the cells were loaded for 1 hour with 50 μl Tyrodes buffer (140 mM NaCl, 5 mM KCl, 10 mM glucose, 1 mM CaCl2.2H2O, 1 mM MgCl2.6H2O, 20 mM HEPES pH 7.4 (Sigma P8761)) containing 2.5 μM of the fluorescent marker of calcium, Fluo4-AM, followed by a 1-hr incubation at 37° C. The cells were then washed with Tyrodes buffer and finally taken up in 100 μl, Tyrodes buffer.
Test solutions containing 0.5 mM ECG and 10 mM of the test compounds, dissolved in Tyrodes buffer, were prepared and 100 μl of each test solution was added to the wells of the 96-well plate containing the cells. A comparative solution containing only 0.5 mM ECG dissolved in Tyrodes buffer was also prepared and 100 μl was added to a well of the 96-well plate containing the cells.
Intracellular calcium levels were monitored using a Flexstation II 384. The 96-well plate was loaded onto the Flexstation II 384 and fluorescence measurements were carried out at 37° C. at an excitation wavelength of 485 nm and an emission wavelength of 520 nm. Activity of TA52R39 was measured as the change in fluorescence (ΔF) which was calculated by subtracting the […] measured before addition of the test or comparative solution.
Inhibition of TAS2R39 activity was measured as the percentage reduction of ΔF in the presence of ECG alone, compared to ΔF in the presence of ECG plus a test compound. 3,4,5-trihydroxybenzoic acid (gallic acid) was included in the selection of the test compounds.

Molecule: O=C(O)CCc1ccccc1 [3-phenylpropanoic acid, reference compound]
- % inhibition of TAS2R39: 15%

Molecule: COc1cc(/C=C/C(=O)O)cc(OC)c1O [4-hydroxy-3,5-dimethoxycinnamic acid, 4-hydroxy-3,5-dimethoxycinnamic acid]
- % inhibition of TAS2R39: 65%
- effectiveness as inhibitor of TAS2R39 compared with gallic acid: more effective inhibitors of TAS2R39 than gallic acid

Molecule: COc1cc(C(=O)O)cc(OC)c1OC [3,4,5-trimethoxybenzoic acid, reference compound]
- % inhibition of TAS2R39: 20%

Molecule: O=C(O)Cc1ccc(O)c(O)c1 [3,4-dihydroxyphenylacetic acid, reference compound]
- % inhibition of TAS2R39: 15%

Molecule: COc1ccccc1/C=C/C(=O)O [2-methoxycinnamic acid, reference compound]
- % inhibition of TAS2R39: 0%

Molecule: O=C(O)CCCc1ccccc1 [4-phenylbutanoic acid]
- % inhibition of TAS2R39: 40%
- effectiveness as inhibitor of TAS2R39 compared with gallic acid: more effective inhibitors of TAS2R39 than gallic acid

Molecule: O=C(O)CCc1ccc(O)c(O)c1 [3-(3,4-dihydroxyphenyl) propanoic acid, 3-(3,4-dihydroxyphenyl)propanoic acid]
- % inhibition of TAS2R39: 30%
- effectiveness as inhibitor of TAS2R39 compared with gallic acid: more effective inhibitors of TAS2R39 than gallic acid

Molecule: COc1ccc(C(=O)O)cc1 [4-methoxybenzoic acid, reference compound]
- % inhibition of TAS2R39: 15%

Molecule: COc1ccc(/C=C/C(=O)O)cc1OC [3,4-dimethoxycinnamic acid]
- effectiveness as inhibitor of TAS2R39 compared with gallic acid: more effective inhibitors of TAS2R39 than gallic acid

Molecule: O=C(O)CCc1ccc(O)cc1 [3-(4-hydroxyphenyl) propanoic acid, reference compound]
- % inhibition of TAS2R39: 25%

Molecule: COc1ccc(CC(=O)O)cc1 [4-methoxyphenylacetic acid, reference compound]
- % inhibition of TAS2R39: 15%

Molecule: COc1cc(/C=C/C(=O)O)cc(OC)c1 [3,5-dimethoxycinnamic acid, reference compound]
- % inhibition of TAS2R39: 20%

Molecule: COc1ccc(/C=C/C(=O)O)c(OC)c1 [2,4-dimethoxycinnamic acid]
- % inhibition of TAS2R39: 40%
- effectiveness as inhibitor of TAS2R39 compared with gallic acid: more effective inhibitors of TAS2R39 than gallic acid

Molecule: COc1ccccc1C(=O)O [2-methoxybenzoic acid, reference compound]
- % inhibition of TAS2R39: 10%

Molecule: COc1cccc(C(=O)O)c1 [3-methoxybenzoic add, reference compound]
- % inhibition of TAS2R39: 5%

Molecule: COc1ccc(CCC(=O)O)cc1OC [3-(3,4-dimethoxyphenyl) propanoic acid, 3-(3,4-dimethoxyphenyl)propanoic acid]
- % inhibition of TAS2R39: 35%
- effectiveness as inhibitor of TAS2R39 compared with gallic acid: more effective inhibitors of TAS2R39 than gallic acid

Molecule: N[C@@H](Cc1ccccc1)C(=O)O [Phenylalamine, reference compound]
- % inhibition of TAS2R39: 0%

Molecule: Benzoic acid [reference compound]
- % inhibition of TAS2R39: 20%

Molecule: COc1ccc(C(=O)O)cc1OC [3,4-dimethoxybenzoic acid, reference compound]
- % inhibition of TAS2R39: 10%

Molecule: O=C(O)/C=C/c1ccc(O)cc1 [4-hydroxycinnamic acid]
- % inhibition of TAS2R39: 40%
- effectiveness as inhibitor of TAS2R39 compared with gallic acid: more effective inhibitors of TAS2R39 than gallic acid

Molecule: O=C(O)c1ccc(O)cc1 [4-hydroxybenzoic acid, reference compound]
- % inhibition of TAS2R39: 25%

Molecule: COc1cc(CC(=O)O)cc(OC)c1OC [3,4,5-trimethoxyphenylacetic acid, reference compound]
- % inhibition of TAS2R39: 25%

Molecule: COc1ccc(/C=C/C(=O)O)cc1 [4-methoxycinnamic acid]
- % inhibition of TAS2R39: 30%
- effectiveness as inhibitor of TAS2R39 compared with gallic acid: more effective inhibitors of TAS2R39 than gallic acid

Molecule: O=C(O)/C=C/c1ccc(O)c(O)c1 [3,4-dihydroxycinnamic acid]
- % inhibition of TAS2R39: 30%
- effectiveness as inhibitor of TAS2R39 compared with gallic acid: more effective inhibitors of TAS2R39 than gallic acid

Molecule: COc1cc(/C=C/C(=O)O)ccc1O [3-methoxy-4-hydroxycinnamic acid, 3-methoxy-4-hydroxycinnamic acid]
- % inhibition of TAS2R39: 65%
- effectiveness as inhibitor of TAS2R39 compared with gallic acid: more effective inhibitors of TAS2R39 than gallic acid

Molecule: COc1ccc(CCC(=O)O)cc1 [3-(4-methoxyphenyl) propanoic acid, 3-(4-methoxyphenyl)propanoic acid]
- % inhibition of TAS2R39: 40%
- effectiveness as inhibitor of TAS2R39 compared with gallic acid: more effective inhibitors of TAS2R39 than gallic acid

Molecule: COc1cccc(C(=O)O)c1O [2-hydroxy-3-methoxybenzoic acid, reference compound]
- % inhibition of TAS2R39: 25%

Molecule: O=C(O)Cc1ccccc1 [Phenylacetic acid, reference compound]
- % inhibition of TAS2R39: 5%

Molecule: COc1cc(CCC(=O)O)cc(OC)c1OC [3-(3,4,5-trimethoxyphenyl)propanoic acid]
- % inhibition of TAS2R39: 35%
- effectiveness as inhibitor of TAS2R39 compared with gallic acid: more effective inhibitors of TAS2R39 than gallic acid

Molecule: O=C(O)/C=C/c1ccccc1 [3-phenyl propenoic acid (Cinnamic acid), 3-phenyl propenoic acid]
- % inhibition of TAS2R39: 40%
- effectiveness as inhibitor of TAS2R39 compared with gallic acid: more effective inhibitors of TAS2R39 than gallic acid

Molecule: COc1cc(/C=C/C(=O)O)cc(OC)c1OC [3,4,5-trimethoxycinnamic acid, 3,4,5-trimethoxycinnamic acid]
- % inhibition of TAS2R39: 70%
- effectiveness as inhibitor of TAS2R39 compared with gallic acid: more effective inhibitors of TAS2R39 than gallic acid

Molecule: O=C(O)c1ccc(O)c(O)c1 [3,4-dihydroxybenzoic acid, reference compound]
- % inhibition of TAS2R39: 15%

Molecule: COc1cccc(/C=C/C(=O)O)c1 [3-methoxycinnamic acid, reference compound]
- % inhibition of TAS2R39: 0%

Molecule: COc1cc(CCC(=O)O)ccc1O [3-(3-methoxy-4-hydroxyphenyl)propanoic acid]
- % inhibition of TAS2R39: 35%
- effectiveness as inhibitor of TAS2R39 compared with gallic acid: more effective inhibitors of TAS2R39 than gallic acid

Molecule: O=C(O)Cc1ccc(O)cc1 [4-hydroxyphenylacetic acid, reference compound]
- % inhibition of TAS2R39: 20%

Molecule: O=C(O)c1cc(O)c(O)c(O)c1 [3,4,5-trihydroxybenzoic acid, reference compound]
- % inhibition of TAS2R39: 25%
